Measurements as given in patent US20130337461A1, “METHOD FOR DIAGNOSIS, MONITORING THE EFFICACY OF A THERAPY AND FOR DEVELOPMENT OF TREATMENT FOR MULTIPLE SCLEROSIS” (priority 2010, published 2013).

Experiments:
M03-13 cells [1] = test: Differentiation of M03-13 cells with PMA: expression or localization of differentiation markers
M03-13 cells [2] = test: Differentiation of M03-13 cells with low doses of hydrogen peroxide: differentiation markers; assay type: cell-based, human
[3] = 100 nM PMA 30 min, cells pre-incubated 16 h in 0.2% FBS, Western blotting, vs not differentiated
[4] = 100 nM PMA 24 h, absence of serum, Western blotting
[5] = 200 μM H2O2 for 4 days in complete medium, Western blotting

How did the P-CREB levels (M03-13 cells [1]; [3]) turn out when `CCCCCCCCCCCCCC(=O)O[C@@H]1[C@@H](C)[C@@]2(O)[C@@H](C=C(CO)C[C@]3(O)C(=O)C(C)=C[C@@H]23)[C@@H]2C(C)(C)[C@]12OC(C)=O` [PMA, 12-O-Tetradecanoylphorbol-13-acetate] was run?
Its P-CREB levels is “significantly increases”.

What about the P-ERK1/2 levels (M03-13 cells [1]; [3]) of the same compound?
Its P-ERK1/2 levels is “significantly increases”.

What about the Olig-2 levels (M03-13 cells [1]; [4]) of the same compound?
The Olig-2 levels was “increased”.

And the P-CREB levels (M03-13 cells [1]; [4])?
Its P-CREB levels is “increased”.

And the P-ERK1/2 levels (M03-13 cells [1]; [4])?
Its P-ERK1/2 levels is “increased”.

What about the α-SMA levels (M03-13 cells [1]; [4]) of the same compound?
The α-SMA levels was “decrease”.

What about the “translocation of olig-2 from nucleus to cytosol” value (M03-13 cells [1]; 100 nM PMA 24 h, medium without serum, confocal microscopy) of the same compound?
The value was “a cytoplasmic staining of the cells became evident”.

What about the α-SMA signal (M03-13 cells [1]; 100 nM PMA serum-free medium, 1 and 4 days, confocal microscopy, vs not differentiated cells) of the same compound?
Its α-SMA signal is “decreased”.

And the Olig-2 fluorescent signal (M03-13 cells [1]; 100 nM PMA serum-free medium, 1 day and 4 days, confocal microscopy, vs not differentiated cells)?
Its Olig-2 fluorescent signal is “progressively increased”.

What about the MBP signal (M03-13 cells [1]; 100 nM PMA serum-free medium, 1 day or 4 days, confocal microscopy, vs not differentiated cells) of the same compound?
Its MBP signal is “increased”.

What about the “mAchR M1 level” value (M03-13 cells [1]; 100 nM PMA, absence of serum, 4 days, Western blotting) of the same compound?
Its value is “increased”.

What about the “cytosolic MBP levels” value (M03-13 cells [1]; 100 nM PMA, absence of serum, 4 days, cell fractionation and Western blotting) of the same compound?
The value was “decreases”.

And the MBP protein levels (M03-13 cells [1]; 100 nM PMA, medium without serum, 24 h and 4 days, flow cytometric analysis)?
The MBP protein levels was “time-dependent increase”.

For `CC(=O)N[C@@H](CS)C(=O)O` [NAC, N-Acetyl-Cysteine], which “reversal of hydrogen peroxide effects on α-SMA, P-CREB levels” value (M03-13 cells [2]; 200 μM H2O2 in presence of NAC 10 mM or AEBSF 40 μM, Western blotting) is on record?
The value was “reverted hydrogen peroxide effects”.

What does the source list for hydrogen peroxide [H2O2]?
total MBP protein levels (M03-13 cells [2]; 200 μM H2O2 4d, flow cytometric analysis): increases; translocation of olig-2 from nucleus to cytosol (M03-13 cells [2]; 200 μM H2O2, 30 min and 24 h, confocal microscopy): a cytoplasmic staining of the cells became evident already after 30 min; α-SMA signal (M03-13 cells [2]; 200 μM H2O2 complete medium, 1 and 4 days, confocal microscopy, vs not differentiated cells): decreased; Olig-2 fluorescent signal (M03-13 cells [2]; 200 μM H2O2 complete medium, 1 day and 4 days, confocal microscopy, vs not differentiated cells): progressively increased; P-CREB levels (M03-13 cells [2]; [5]): induces; P-ERK1/2 levels (M03-13 cells [2]; [5]): not affected; α-SMA levels (M03-13 cells [2]; [5]): decreases; cytosolic MBP levels (M03-13 cells [2]; 200 μM hydrogen peroxide 4 days, complete medium, cell fractionation and Western blotting): decreases; differentiation of oligodendrocyte precursors to differentiated cells (M03-13 cells [2]; low doses of hydrogen peroxide, overall conclusion): induces the differentiation
